Data on 7 molecules can be found in PubChem BioAssay (NCI).

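Where inhibition never reached the appropriate level, the endpoint shown equals the highest concentration tested. Otherwise, values were interpolated linearly from a five-concentration, 48-hour dose response in 96-well plates. At the GI50, growth is halved. TGI is the concentration that stops growth completely.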

Some test systems named below: NCI-H23 lung; LOX IMVI melanoma; COLO 205 colon; SF-295 CNS; SF-268 CNS; T-47D breast; HT29 colon; SK-MEL-28 melanoma; SK-MEL-2 melanoma; HOP-92 NSCLC; UACC-62 melanoma; NCI-H226 lung; UO-31 renal; NCI/ADR-RES ovarian; CAKI-1 renal; PC-3 prostate; MDA-N.
Holding throughout (experiment): growth of human tumour cells (NCI), 48 h

As to `C1=C\CCCCN2C[C@H]3CCCC/C=C\CCCCN4CC[C@@H]([C@H](CCCCCC/1)C4)[C@H](C3)C2`, the TGI in the assay with NCI-H23 lung was found to be 18.9 µM; in the assay with LOX IMVI melanoma, 3.22 µM; in the assay with COLO 205 colon, 4.03 µM; in the assay with SF-295 CNS, 3.53 µM; in the assay with SF-268 CNS it was 5.74 µM; in the assay on T-47D breast, 4.6 µM. Besides, the TGI in the assay on HT29 colon was 5.1 µM; with SK-MEL-28 melanoma, 3.89 µM; in the assay on SK-MEL-2 melanoma, 4.56 µM; in the assay on HOP-92 NSCLC, greater than 20.2 µM; with UACC-62 melanoma, 3.67 µM; with NCI-H226 lung it was 37 µM. Further, the TGI came out at 3.16 µM with UO-31 renal; 9.89 µM in the assay on NCI/ADR-RES ovarian; 5.6 µM in the assay with CAKI-1 renal; 14.5 µM in the assay on PC-3 prostate; 3.26 µM in the assay on MDA-N.

Take `COc1ccc(N=C(Nc2ccc(OC)cc2)C(=Nc2ccc(OC)cc2)Nc2ccc(OC)cc2)cc1`: the TGI in the assay on NCI-H23 lung, in the assay on LOX IMVI melanoma, with COLO 205 colon, with SF-295 CNS, with SF-268 CNS and in the assay with T-47D breast was greater than 100 µM in each case. For the same molecule, the TGI in the assay on HT29 colon, in the assay on SK-MEL-28 melanoma, with SK-MEL-2 melanoma, in the assay on HOP-92 NSCLC, in the assay on UACC-62 melanoma and with NCI-H226 lung was greater than 100 µM in each case. The TGI in the assay on UO-31 renal, in the assay on NCI/ADR-RES ovarian, in the assay with CAKI-1 renal, in the assay on PC-3 prostate and in the assay on MDA-N was greater than 100 µM each time.

As for `OC1COC(n2c3ccc(Br)cc3c3ccc4c5ccccc5[nH]c4c32)C(O)C1O` (stereo not given), the TGI in the assay on NCI-H23 lung is 12 µM; with LOX IMVI melanoma, 10.4 µM; in the assay with COLO 205 colon it was 3.65 µM; in the assay with SF-295 CNS it was 10.6 µM; in the assay with SF-268 CNS, 19.9 µM; with T-47D breast, 20.1 µM. Further, the TGI in the assay with HT29 colon turned out to be 11.4 µM; in the assay on SK-MEL-28 melanoma, 28.9 µM; with SK-MEL-2 melanoma, 19.8 µM; in the assay with HOP-92 NSCLC, 9.38 µM; in the assay with UACC-62 melanoma, 1.53 µM; with NCI-H226 lung, 30.3 µM. The TGI came to 14.2 µM with UO-31 renal; 19.1 µM in the assay with NCI/ADR-RES ovarian; 10.6 µM in the assay with CAKI-1 renal; 12 µM in the assay on PC-3 prostate; 15.2 µM in the assay on MDA-N.

As to `Cc1cccc2c1NC(=S)[C@@H]1CCCN1C2=O`, the TGI in the assay on NCI-H23 lung, in the assay on LOX IMVI melanoma, with COLO 205 colon, in the assay with SF-295 CNS, with SF-268 CNS and in the assay on T-47D breast was greater than 100 µM in each case. Also, the TGI in the assay on HT29 colon, in the assay with SK-MEL-28 melanoma, with SK-MEL-2 melanoma, in the assay on HOP-92 NSCLC, with UACC-62 melanoma and with NCI-H226 lung was greater than 100 µM each time. Further, the TGI in the assay on UO-31 renal, in the assay with NCI/ADR-RES ovarian, with CAKI-1 renal, in the assay with PC-3 prostate and in the assay with MDA-N was greater than 100 µM in each case.

`C=CC[C@H](C)CCC(=O)N1[C@H]2CC3CC[C@@]2(CS1(=O)=O)C3(C)C`: the TGI is greater than 100 µM in the assay with NCI-H23 lung; 83 µM with LOX IMVI melanoma; greater than 100 µM with COLO 205 colon; greater than 100 µM in the assay with SF-295 CNS; greater than 100 µM in the assay on SF-268 CNS; greater than 100 µM with T-47D breast. For the same molecule, the TGI is 49 µM in the assay on HT29 colon; greater than 100 µM with SK-MEL-28 melanoma; greater than 100 µM with SK-MEL-2 melanoma; greater than 100 µM with HOP-92 NSCLC; greater than 100 µM in the assay with UACC-62 melanoma; greater than 100 µM in the assay on NCI-H226 lung. In addition, the TGI with UO-31 renal, in the assay with NCI/ADR-RES ovarian, in the assay with CAKI-1 renal, with PC-3 prostate and with MDA-N was greater than 100 µM in each case.

Regarding `CSc1ccc(/C=C2\N=C(c3ccccc3)N(c3nc4ccc(Sc5ccccc5)cc4[nH]3)C2=O)cc1`, the TGI in the assay on NCI-H23 lung was greater than 94.5 µM; with LOX IMVI melanoma, 41.6 µM; with COLO 205 colon, 30.9 µM; with SF-295 CNS, 50.5 µM; in the assay with SF-268 CNS, greater than 77.8 µM; with T-47D breast, 60.6 µM. Also, the TGI was 50.4 µM with HT29 colon; 51.8 µM with SK-MEL-28 melanoma; 37 µM with SK-MEL-2 melanoma; 34 µM with HOP-92 NSCLC; 39.1 µM in the assay with UACC-62 melanoma; greater than 83.1 µM in the assay with NCI-H226 lung. Also, the TGI was 68.5 µM in the assay on UO-31 renal; 72.3 µM in the assay with NCI/ADR-RES ovarian; greater than 94 µM in the assay on CAKI-1 renal; greater than 87.9 µM in the assay on PC-3 prostate; 18 µM with MDA-N. In addition, in the assay with NCI-H226 lung, the GI50 is 20.6 µM.

Regarding `CN(C)Cc1cc(N=Nc2ccccc2)cc(CN(C)C)c1O`, the TGI with NCI-H23 lung, in the assay on LOX IMVI melanoma, with COLO 205 colon, with SF-295 CNS, in the assay on SF-268 CNS and in the assay with T-47D breast was greater than 100 µM throughout. Moreover, the TGI in the assay on HT29 colon, with SK-MEL-28 melanoma, in the assay with SK-MEL-2 melanoma, with HOP-92 NSCLC, with UACC-62 melanoma and in the assay on NCI-H226 lung was greater than 100 µM throughout. The TGI with UO-31 renal, in the assay with NCI/ADR-RES ovarian, in the assay on CAKI-1 renal, in the assay on PC-3 prostate and with MDA-N was greater than 100 µM each time.
